# Article PMC5666153, “Klebsiella pneumoniae Carbapenemase-2 (KPC-2), Substitutions at Ambler Position Asp179, and Resistance to Ceftazidime-Avibactam: Unique Antibiotic-Resistant Phenotypes Emerge from β-Lactamase Protein Engineering” (mBio, 2017)
# Like-named read-outs stand apart in the source and are kept apart here.
# Key:
# Assay in all cases: microbe, parasite or virus in culture
# E. coli DH10B pBC SK = test system: T1, E. coli DH10B pBC SK; parameters: species or system bacterial strain of the line; Mueller-Hinton agar-dilution MIC, CLSI; concentration at which bacterial growth was no longer observed; details: Escherichia coli, empty vector pBC SK
# T1 construct: DH10B carries empty vector pBC SK
# Procedure: (§1) Mueller-Hinton (MH) agar-dilution MIC measurements were performed according to Clinical and Laboratory Standards Institute (CLSI) guidelines as previously described ([12], [30]). The MICs are reported as the concentrations at which bacterial growth was no longer observed. Avibactam was tested at a constant 4 µg/ml in combination with its respective antibiotic partners. All MIC measurements were performed at least three times. The impact of site-saturation mutagenesis at Ambler position 179 of KPC-2 on antibiotic resistance was next assessed using whole-cell viability assays. Twenty-four different β-lactam and β-lactam–β-lactamase inhibitor combinations were tested for susceptibility against KPC-2 and the 19 variants expressed in E. coli DH10B cells (Tables 1 and 2). The Klebsiella pneumoniae KPC-2-containing positive-control strain maintained resistance (as defined by Clinical and Laboratory Standards Institute [CLSI] criteria) against all the commercially available β-lactams tested (Table 1).
# E. coli DH10B = test system: T2, E. coli DH10B; parameters: species or system bacterial strain of the line; Mueller-Hinton agar-dilution MIC, CLSI; concentration at which bacterial growth was no longer observed; details: Escherichia coli
# T2 construct: DH10B
# Procedure: as §1
# K. pneumoniae KPC-2 = test system: T3, K. pneumoniae KPC-2; parameters: species or system bacterial strain of the line; Mueller-Hinton agar-dilution MIC, CLSI; concentration at which bacterial growth was no longer observed; details: Klebsiella pneumoniae
# T3 construct: KPC-2-producing control strain, also producing TEM-1 and SHV-29
# [1] = test system: T4, blaKPC-2 179 Asp (WT) in E. coli DH10B; parameters: species or system E. coli DH10B / K. pneumoniae; Mueller-Hinton agar dilution MIC, CLSI, no visible growth; details: Escherichia coli
# T4 construct: DH10B expressing blaKPC-2 (wild type)
# Procedure: Mueller-Hinton (MH) agar-dilution MIC measurements were performed according to Clinical and Laboratory Standards Institute (CLSI) guidelines as previously described ([12], [30]). The MICs are reported as the concentrations at which bacterial growth was no longer observed. Avibactam was tested at a constant 4 µg/ml in combination with its respective antibiotic partners. All MIC measurements were performed at least three times.
# [2] = BAL, read-out: MIC(s) (µg/ml) / BAL
smiles,measurement,setting,value
"C[C@H]1[C@H](NC(=O)/C(=N\OC(C)(C)C(=O)O)c2csc(N)n2)C(=O)N1S(=O)(=O)O [AZT, aztreonam]",MIC,"E. coli DH10B pBC SK; DH10BPBCSK, read-out: MIC(s) (µg/ml) / AZT",0.06 µg/mL
same,MIC,"E. coli DH10B; DH10B, read-out: MIC(s) (µg/ml) / AZT",0.06 µg/mL
CC1(C)[C@H](NC(=O)/C(=N\OCc2cc(=O)c(O)cn2O)c2csc(N)n2)C(=O)N1OS(=O)(=O)O [BAL30072],MIC,E. coli DH10B pBC SK; [2],≤ 0.06 µg/mL
same,MIC,E. coli DH10B; [2],≤ 0.06 µg/mL
same,MIC,K. pneumoniae KPC-2; [2],8 µg/mL
same,MIC,[1]; [2],≤ 0.06 µg/mL
"CC(C)(O/N=C(\C(=O)N[C@@H]1C(=O)N2C(C(=O)[O-])=C(C[n+]3ccccc3)CS[C@H]12)c1csc(N)n1)C(=O)O [CAZ, ceftazidime]",MIC,"E. coli DH10B pBC SK; DH10BPBCSK, read-out: MIC(s) (µg/ml) / CAZ",0.25 µg/mL
same,MIC,"E. coli DH10B; DH10B, read-out: MIC(s) (µg/ml) / CAZ",0.25 µg/mL
same,MIC,"K. pneumoniae KPC-2; KPC2, read-out: MIC(s) (µg/ml) / CAZ",64 µg/mL
same,MIC,[1]; read-out: MIC(s) (µg/ml) / CAZ,1 µg/mL
"CO/N=C(\C(=O)N[C@@H]1C(=O)N2C(C(=O)O)=C(CSc3nc(=O)c(=O)[nH]n3C)CS[C@H]12)c1csc(N)n1 [CRO, ceftriaxone]",MIC,"E. coli DH10B pBC SK; DH10BPBCSK, read-out: MIC(s) (µg/ml) / CRO",≤ 0.06 µg/mL
same,MIC,"E. coli DH10B; DH10B, read-out: MIC(s) (µg/ml) / CRO",≤ 0.06 µg/mL
same,MIC,[1]; read-out: MIC(s) (µg/ml) / CRO,0.5 µg/mL
"C[C@@H](O)[C@H]1C(=O)N2C(C(=O)O)=C(SCCN=CN)C[C@H]12 [IMI, imipenem]",MIC,"E. coli DH10B pBC SK; DH10BPBCSK, read-out: MIC(s) (µg/ml) / IMI",0.5 µg/mL
same,MIC,"E. coli DH10B; DH10B, read-out: MIC(s) (µg/ml) / IMI",0.5 µg/mL
same,MIC,"K. pneumoniae KPC-2; KPC2, read-out: MIC(s) (µg/ml) / IMI",16 µg/mL
same,MIC,[1]; read-out: MIC(s) (µg/ml) / IMI,1 µg/mL
"CCO/N=C(\C(=O)N[C@@H]1C(=O)N2C(C(=O)[O-])=C(Sc3nc(-c4cc[n+](C)cc4)cs3)CS[C@H]12)c1nsc(N)n1 [TAR, ceftaroline]",MIC,"E. coli DH10B pBC SK; DH10BPBCSK, read-out: MIC(s) (µg/ml) / TAR",< 0.06 µg/mL
same,MIC,"E. coli DH10B; DH10B, read-out: MIC(s) (µg/ml) / TAR",0.06 µg/mL
same,MIC,"K. pneumoniae KPC-2; KPC2, read-out: MIC(s) (µg/ml) / TAR",512 µg/mL
same,MIC,[1]; read-out: MIC(s) (µg/ml) / TAR,1 µg/mL
CC1(C)S[C@@H]2[C@H](NC(=O)[C@H](N)c3ccccc3)C(=O)N2[C@H]1C(=O)O [ampicillin],MIC,"E. coli DH10B pBC SK; DH10BPBCSK, read-out: MIC(s) (µg/ml) / AMP",4 µg/mL
same,MIC,"E. coli DH10B; DH10B, read-out: MIC(s) (µg/ml) / AMP",8 µg/mL
same,MIC,"K. pneumoniae KPC-2; KPC2, read-out: MIC(s) (µg/ml) / AMP",> 8190 µg/mL
same,MIC,[1]; read-out: MIC(s) (µg/ml) / AMP,64 µg/mL
CO/N=C(\C(=O)N[C@@H]1C(=O)N2C(C(=O)[O-])=C(C[N+]3(C)CCCC3)CS[C@H]12)c1csc(N)n1 [cefepime],MIC,"E. coli DH10B pBC SK; DH10BPBCSK, read-out: MIC(s) (µg/ml) / FEP",≤ 0.125 µg/mL
same,MIC,"E. coli DH10B; DH10B, read-out: MIC(s) (µg/ml) / FEP",≤ 0.125 µg/mL
same,MIC,"K. pneumoniae KPC-2; KPC2, read-out: MIC(s) (µg/ml) / FEP",64 µg/mL
same,MIC,[1]; read-out: MIC(s) (µg/ml) / FEP,0.125 µg/mL
CO/N=C(\C(=O)N[C@@H]1C(=O)N2C(C(=O)O)=C(COC(C)=O)CS[C@H]12)c1csc(N)n1 [cefotaxime],MIC,"E. coli DH10B pBC SK; DH10BPBCSK, read-out: MIC(s) (µg/ml) / TAX",≤ 0.06 µg/mL
same,MIC,"E. coli DH10B; DH10B, read-out: MIC(s) (µg/ml) / TAX",≤ 0.06 µg/mL
same,MIC,"K. pneumoniae KPC-2; KPC2, read-out: MIC(s) (µg/ml) / TAX",64 µg/mL
same,MIC,[1]; read-out: MIC(s) (µg/ml) / TAX,0.25 µg/mL
CC(=O)OCC1=C(C(=O)O)N2C(=O)[C@@H](NC(=O)Cc3cccs3)[C@H]2SC1 [cephalothin],MIC,"E. coli DH10B pBC SK; DH10BPBCSK, read-out: MIC(s) (µg/ml) / THIN",4 µg/mL
same,MIC,"E. coli DH10B; DH10B, read-out: MIC(s) (µg/ml) / THIN",4 µg/mL
same,MIC,"K. pneumoniae KPC-2; KPC2, read-out: MIC(s) (µg/ml) / THIN",2050 µg/mL
same,MIC,[1]; read-out: MIC(s) (µg/ml) / THIN,64 µg/mL
C[C@@H](O)[C@H]1C(=O)N2C(C(=O)O)=C(S[C@@H]3CN[C@H](CNS(N)(=O)=O)C3)[C@H](C)[C@H]12 [doripenem],MIC,"E. coli DH10B pBC SK; DH10BPBCSK, read-out: MIC(s) (µg/ml) / DOR",≤ 0.06 µg/mL
same,MIC,"E. coli DH10B; DH10B, read-out: MIC(s) (µg/ml) / DOR",≤ 0.06 µg/mL
same,MIC,"K. pneumoniae KPC-2; KPC2, read-out: MIC(s) (µg/ml) / DOR",8 µg/mL
same,MIC,[1]; read-out: MIC(s) (µg/ml) / DOR,0.125 µg/mL
C[C@@H](O)[C@H]1C(=O)N2C(C(=O)O)=C(S[C@@H]3CN[C@H](C(=O)Nc4cccc(C(=O)O)c4)C3)[C@H](C)[C@H]12 [ertapenem],MIC,"E. coli DH10B pBC SK; DH10BPBCSK, read-out: MIC(s) (µg/ml) / ERT",≤ 0.03 µg/mL
same,MIC,"E. coli DH10B; DH10B, read-out: MIC(s) (µg/ml) / ERT",≤ 0.03 µg/mL
same,MIC,"K. pneumoniae KPC-2; KPC2, read-out: MIC(s) (µg/ml) / ERT",32 µg/mL
same,MIC,[1]; read-out: MIC(s) (µg/ml) / ERT,≤ 0.06 µg/mL
C[C@@H](O)[C@H]1C(=O)N2C(C(=O)O)=C(S[C@@H]3CN[C@H](C(=O)N(C)C)C3)[C@H](C)[C@H]12 [meropenem],MIC,"E. coli DH10B pBC SK; DH10BPBCSK, read-out: MIC(s) (µg/ml) / MEM",≤ 0.06 µg/mL
same,MIC,"E. coli DH10B; DH10B, read-out: MIC(s) (µg/ml) / MEM",≤ 0.06 µg/mL
same,MIC,"K. pneumoniae KPC-2; KPC2, read-out: MIC(s) (µg/ml) / MEM",16 µg/mL
same,MIC,[1]; read-out: MIC(s) (µg/ml) / MEM,0.06 µg/mL
CCN1CCN(C(=O)N[C@@H](C(=O)N[C@@H]2C(=O)N3[C@@H]2SC(C)(C)[C@@H]3C(=O)O)c2ccccc2)C(=O)C1=O [piperacillin],MIC,"E. coli DH10B pBC SK; DH10BPBCSK, read-out: MIC(s) (µg/ml) / PIP",2 µg/mL
same,MIC,"E. coli DH10B; DH10B, read-out: MIC(s) (µg/ml) / PIP",2 µg/mL
same,MIC,"K. pneumoniae KPC-2; KPC2, read-out: MIC(s) (µg/ml) / PIP",2050 µg/mL
same,MIC,[1]; read-out: MIC(s) (µg/ml) / PIP,8 µg/mL
